Data from ChEMBL document CHEMBL3244293, “Antiallergic activity of some 9H-xanthen-9-one-2-carboxylic acids” (J Med Chem, 1978).

Tests used:
[1] = 1-Octanol-citrate buffer partition coefficient, log P of the compound at pH 4.0 by UV spectrometry; type: physicochemical
[2] = tested on: Rattus norvegicus; assay: (§1) Antiallergic activity in anti-Nippostrongylus brasiliensis homocytotropic antibody-injected Sprague-Dawley rat assessed as inhibition of passive cutaneous anaphylaxis reaction at 10 mg/kg, ip administered 15 mins prior to worm extract antigen challenge measured 45 mins following antigen challenge by Evans blue dye staining; type: functional; conditions: route intraperitoneal; for inhibition in vivo at 10 mg/kg: Rattus norvegicus, Sprague-Dawley, ip
[3] = tested on: Rattus norvegicus; assay: as §1, with “at 25” for “at 10”, “mg/kg, po” for “mg/kg, ip”, “administered 8” for “administered 15”; type: functional
[4] = tested on: Rattus norvegicus; assay: as §1, with “5” for “10”; type: functional; conditions: route intraperitoneal

Compound	logD [1]	inhibition in vivo at 10 mg/kg [2] [%]	log(%) [2]	inhibition in vivo at 25 mg/kg [3] [%]	inhibition in vivo at 5 mg/kg [4] [%]
COCC(O)COc1ccc2oc3ccc(C(=O)O)cc3c(=O)c2c1 (stereo not given)	2.13	29	1.46	–	–
O=C(O)c1ccc2oc3ccc(OCC(O)CSCCO)cc3c(=O)c2c1 (stereo not given)	2.32	100	2	0	–
O=C(O)c1ccc2oc3ccc(OCC(O)CSc4ccc(Cl)c(Cl)c4)cc3c(=O)c2c1 (stereo not given)	–	–	–	–	7
O=C(O)c1ccc2oc3ccc(OCC(O)CSc4ccc(F)cc4)cc3c(=O)c2c1 (stereo not given)	–	–	–	–	38
O=C(O)c1ccc2oc3ccc(OCC(O)CSc4ccc(Cl)cc4)cc3c(=O)c2c1 (stereo not given)	–	–	–	–	37
O=C(O)c1ccc2oc3ccc(OCC(O)C[S+]([O-])c4ccccc4)cc3c(=O)c2c1 (stereo not given)	–	–	–	–	42
COc1ccc(SCC(O)COc2ccc3oc4ccc(C(=O)O)cc4c(=O)c3c2)cc1 (stereo not given)	–	–	–	–	51
CCCCCCCSCC(O)COc1ccc2oc3ccc(C(=O)O)cc3c(=O)c2c1 (stereo not given)	2.81	17	1.23	–	–
O=C(O)c1ccc2oc3ccc(OCC(O)CSC45CC6CC(CC(C6)C4)C5)cc3c(=O)c2c1 (stereo not given)	2.58	16	1.2	–	–
CC(C)(C)SCC(O)COc1ccc2oc3ccc(C(=O)O)cc3c(=O)c2c1 (stereo not given)	2.83	83	1.92	–	–
O=C(O)c1ccc2oc3ccc(OCC(O)CSc4ccccc4)cc3c(=O)c2c1 (stereo not given)	3.8	100	2	22	88
O=C(O)c1ccc2oc3ccc(OCCO)cc3c(=O)c2c1	–	100	–	100	100
O=C(O)c1cc(=O)c2c(OCC(O)COc3cccc4oc(C(=O)O)cc(=O)c34)cccc2o1 [CROMOLYN SODIUM]	–	89	–	–	–
COCCOCC(O)COc1ccc2oc3ccc(C(=O)O)cc3c(=O)c2c1 (stereo not given)	2.08	99	2	15	–
C[S+]([O-])CC(O)COc1ccc2oc3ccc(C(=O)O)cc3c(=O)c2c1 (stereo not given)	1.36	100	2	0	–
O=C(O)c1ccc2oc3ccc(OCC(O)CO)cc3c(=O)c2c1 (stereo not given)	2.33	78	1.89	19	–
O=C(O)c1ccc2oc3ccc(OCC(O)CSc4ccc(Br)cc4)cc3c(=O)c2c1 (stereo not given)	–	–	–	–	14
O=C(O)c1ccc2oc3ccc(OCC(O)COCCO)cc3c(=O)c2c1 (stereo not given)	2.31	77	1.89	–	–
O=C(O)c1ccc2oc3ccc(OCC(O)CSC4CCCCC4)cc3c(=O)c2c1 (stereo not given)	2.95	39	1.59	–	–
CSCC(O)COc1ccc2oc3ccc(C(=O)O)cc3c(=O)c2c1 (stereo not given)	2.81	71	1.85	48	–
CC(C)SCC(O)COc1ccc2oc3ccc(C(=O)O)cc3c(=O)c2c1 (stereo not given)	3.06	38	1.54	–	–
O=C(O)c1ccc2oc3ccc(OCC(O)COCC(F)(F)F)cc3c(=O)c2c1 (stereo not given)	3.14	100	2	0	–
